Experimental data from patent US20040052750A1, “Compositions for prevention and alleviation of skin wrinkles” (priority 2000, published 2004).
Where a name gives a salt, the structure may show the parent alone.

Legend:
[1] = test system: fibroblasts derived from a human; test: Promoting collagen production in fibroblasts (3H-proline incorporation into collagenase-sensitive protein); type: cell-based; conditions: control = 100%
Method: The experimental protocol in detail is as follows.
Human-derived fibroblasts were transferred to a 24 well plate and cultured in a medium containing 10% fetal bovine serum (FBS) for 24 hours, followed by washing twice with phosphate buffered saline. […] After the incubation was terminated, cells from each group were harvested and two fractions of each culture were prepared. One fraction from each culture was treated with collagenase. To all fractions was added trichloroacetic acid to precipitate proteins. The amount of radioactivity incorporated into collagenase-sensitive protein was measured and compared with that of the other fraction which was not treated with collagenase. The difference in radioactivity was attributed to the promoting effect of the compound.

rat skin = test: Promotion of collagen production in rat skin (hydroxyproline in implanted PVA sponge); type: in vivo, SD rats; conditions: 200 μl every day for 10 days, control = 100%
Method: In brief, 5-week male SD rats were grouped with 5 rats per group. The rats were each incised 1 cm in the center of their abdomens and PVA sponges (Unipoint ind.) were inserted therein. After suturing, as for experimental groups, respective active ingredients to be examined were applied to the PVA sponge-embeded regions i n a volume o f 200 μl every day for 10 days. Upon autopsy, the PVA sponge was removed to quantify hydroxyproline. The PVA sponge was added with 4 ml of 6 N HCl, hydrolized at 130° C. for 3 hours and was subjected to complete drying. 50 μl of methanol was added and the solution was incubated at 110° C. until HCl was removed. 1.2 ml of 50% isopropanol was added to dissolve the remaining precipitate. 200 μl of chloramine-T (sodium p-toluensulfochloramide trihydrate) solution was added while stirring, and let stand for 10 min. After adding 1.2 ml of Ehrlich reagent and mixing, the solution was incubated at 50° C. for 90 min. The resulting solution was cooled to room temperature and absorbance at 558 nm was measured. Hydroxyproline standard solutions were prepared by dissolving 1 mg hydroxyproline in 1 ml HCl and diluting it to concentrations of 0, 0.2, 0.4, 0.8, 1 mg each relative to 25 μl of 6 N HCl. The standard solutions were hydrolyzed at 130° C. for 3 hours. The quantified value of hydroxyproline, relative to hydroxyproline value (100%) of the control group which was applied with solvent only, are shown in Table 2.

hairless mice [2] = test: Inhibiting the generation of wrinkles in hairless mice (simulated sunlight); type: in vivo; conditions: 10 per group
Method: 6-week hairless mice were placed into 21 experimental groups and 3 control groups, with 10 rats per group. […] The experimental protocol in detail is as follows. Hairless mice were radiated using simulated sunlight at a dose of 2 MED (double Minimal Erythema Dose) 3 days a week for […], thereby generating wrinkles. Respective active ingredients or the solvent only were applied twice every day (specifically, on radiation days, the application was performed at 30 min before and after the radiation), at a volume of 100 μl each for 10 weeks from the first radiation day. Degrees of inhibition of generated wrinkles were determined. The determination was performed by visual observation with naked eyes and photography.

hairless mice [3] = test: Alleviating photo-induced wrinkles in hairless mice; type: in vivo; conditions: twice a day for 6 weeks, 10 per group
Method: Mice were placed into 21 experimental groups and 3 control groups, with 10 rats per group. […] The experimental protocol is as follows. Hairless mice were radiated using a simulated sunlight at a dose of 2 MED (double Minimal Erythema Dose) 3 days a week for 10 weeks, thereby generating wrinkles. Then, respective active ingredients or the solvent only were applied at a volume of 100 μl each, twice a day for 6 weeks. Degrees of wrinkle reduction were determined. The determination was performed by visually observing the compound-applied region with naked eyes, and the region was photographed. The degrees of alleviation of wrinkles in the compound-treatment groups (experimental groups) were compared with those of the control group and were determined as one of 4 stages, that is, none (Score 0), slight (Score 1), moderate (Score 2) and high (Score 3), and the corresponding mice were counted.

SMILES | Effect of promoting collagen production in fibroblasts (rate of collagen production) ([1]; 10^-5 M) | Effect of promoting collagen production in fibroblasts (rate of collagen production) ([1]; 10^-6 M) | Effect of promoting collagen production in fibroblasts (rate of collagen production) ([1]; 10^-7 M) | Effect of promoting collagen production in fibroblasts (rate of collagen production) ([1]; 10^-8 M) | Inhibition of wrinkles, Score 0 (none) (hairless mice [2]; 10^-3 M) | Inhibition of wrinkles, Score 1 (slight) (hairless mice [2]; 10^-3 M) | Inhibition of wrinkles, Score 2 (moderate) (hairless mice [2]; 10^-3 M) | Inhibition of wrinkles, Score 3 (high) (hairless mice [2]; 10^-3 M) | Inhibition of wrinkles, Score 0 (none) (hairless mice [2]; 10^-5 M) | Inhibition of wrinkles, Score 1 (slight) (hairless mice [2]; 10^-5 M) | Inhibition of wrinkles, Score 2 (moderate) (hairless mice [2]; 10^-5 M) | Inhibition of wrinkles, Score 3 (high) (hairless mice [2]; 10^-5 M) | Inhibition of wrinkles, Score 0 (none) (hairless mice [2]; 10^-8 M) | Inhibition of wrinkles, Score 1 (slight) (hairless mice [2]; 10^-8 M) | Inhibition of wrinkles, Score 2 (moderate) (hairless mice [2]; 10^-8 M) | Inhibition of wrinkles, Score 3 (high) (hairless mice [2]; 10^-8 M) | Reduction of wrinkles, Score 0 (none) (hairless mice [3]; 10^-3 M) | Reduction of wrinkles, Score 1 (slight) (hairless mice [3]; 10^-3 M) | Reduction of wrinkles, Score 2 (moderate) (hairless mice [3]; 10^-3 M) | Reduction of wrinkles, Score 3 (high) (hairless mice [3]; 10^-3 M) | other results
COc1ccc(CCN(C)CCCC(C#N)(c2ccc(OC)c(OC)c2)C(C)C)cc1OC (stereo not shown) [Verapamil HCl] | 355.12% | 331.09% | 280.23% | 183.25% | 0 number of mice | 0 number of mice | 1 number of mice | 9 number of mice | 0 number of mice | 1 number of mice | 2 number of mice | 7 number of mice | 0 number of mice | 1 number of mice | 1 number of mice | 8 number of mice | 0 number of mice | 1 number of mice | 2 number of mice | 7 number of mice | Effect of promoting collagen production in animal skin (hydroxyproline value vs control) (rat skin; 10^-5 M): 183.32%; Effect of promoting collagen production in animal skin (hydroxyproline value vs control) (rat skin; 10^-6 M): 167.06%; Effect of promoting collagen production in animal skin (hydroxyproline value vs control) (rat skin; 10^-7 M): 147.39%; Effect of promoting collagen production in animal skin (hydroxyproline value vs control) (rat skin; 10^-8 M): 135.63%; Reduction of wrinkles, Score 0 (none) (hairless mice [3]; 10^-5 M): 0 number of mice; Reduction of wrinkles, Score 1 (slight) (hairless mice [3]; 10^-5 M): 2 number of mice; Reduction of wrinkles, Score 2 (moderate) (hairless mice [3]; 10^-5 M): 1 number of mice; Reduction of wrinkles, Score 3 (high) (hairless mice [3]; 10^-5 M): 7 number of mice; Reduction of wrinkles, Score 0 (none) (hairless mice [3]; 10^-8 M): 0 number of mice; Reduction of wrinkles, Score 1 (slight) (hairless mice [3]; 10^-8 M): 2 number of mice; Reduction of wrinkles, Score 2 (moderate) (hairless mice [3]; 10^-8 M): 2 number of mice; Reduction of wrinkles, Score 3 (high) (hairless mice [3]; 10^-8 M): 6 number of mice
CCCC(CCC)C(=O)O [Valproic acid] | 370.21% | 332.11% | 283.24% | 201.13% | 0 number of mice | 0 number of mice | 2 number of mice | 8 number of mice | 0 number of mice | 1 number of mice | 2 number of mice | 7 number of mice | 0 number of mice | 1 number of mice | 1 number of mice | 8 number of mice | 0 number of mice | 0 number of mice | 2 number of mice | 8 number of mice | Effect of promoting collagen production in animal skin (hydroxyproline value vs control) (rat skin; 10^-5 M): 178.13%; Effect of promoting collagen production in animal skin (hydroxyproline value vs control) (rat skin; 10^-6 M): 157.72%; Effect of promoting collagen production in animal skin (hydroxyproline value vs control) (rat skin; 10^-7 M): 139.24%; Effect of promoting collagen production in animal skin (hydroxyproline value vs control) (rat skin; 10^-8 M): 128.05%; Reduction of wrinkles, Score 0 (none) (hairless mice [3]; 10^-5 M): 0 number of mice; Reduction of wrinkles, Score 1 (slight) (hairless mice [3]; 10^-5 M): 1 number of mice; Reduction of wrinkles, Score 2 (moderate) (hairless mice [3]; 10^-5 M): 2 number of mice; Reduction of wrinkles, Score 3 (high) (hairless mice [3]; 10^-5 M): 7 number of mice; Reduction of wrinkles, Score 0 (none) (hairless mice [3]; 10^-8 M): 0 number of mice; Reduction of wrinkles, Score 1 (slight) (hairless mice [3]; 10^-8 M): 1 number of mice; Reduction of wrinkles, Score 2 (moderate) (hairless mice [3]; 10^-8 M): 2 number of mice; Reduction of wrinkles, Score 3 (high) (hairless mice [3]; 10^-8 M): 7 number of mice
COc1ccc([C@@H]2Sc3ccccc3N(CCN(C)C)C(=O)[C@@H]2OC(C)=O)cc1 [Diltiazem] | 362.12% | 321.23% | 276.25% | 199.15% | 0 number of mice | 1 number of mice | 2 number of mice | 7 number of mice | 0 number of mice | 2 number of mice | 2 number of mice | 6 number of mice | 0 number of mice | 2 number of mice | 2 number of mice | 6 number of mice | 0 number of mice | 0 number of mice | 2 number of mice | 8 number of mice | Effect of promoting collagen production in animal skin (hydroxyproline value vs control) (rat skin; 10^-5 M): 175.23%; Effect of promoting collagen production in animal skin (hydroxyproline value vs control) (rat skin; 10^-6 M): 157.45%; Effect of promoting collagen production in animal skin (hydroxyproline value vs control) (rat skin; 10^-7 M): 136.76%; Effect of promoting collagen production in animal skin (hydroxyproline value vs control) (rat skin; 10^-8 M): 122.44%; Reduction of wrinkles, Score 0 (none) (hairless mice [3]; 10^-5 M): 0 number of mice; Reduction of wrinkles, Score 1 (slight) (hairless mice [3]; 10^-5 M): 1 number of mice; Reduction of wrinkles, Score 2 (moderate) (hairless mice [3]; 10^-5 M): 2 number of mice; Reduction of wrinkles, Score 3 (high) (hairless mice [3]; 10^-5 M): 7 number of mice; Reduction of wrinkles, Score 0 (none) (hairless mice [3]; 10^-8 M): 0 number of mice; Reduction of wrinkles, Score 1 (slight) (hairless mice [3]; 10^-8 M): 1 number of mice; Reduction of wrinkles, Score 2 (moderate) (hairless mice [3]; 10^-8 M): 2 number of mice; Reduction of wrinkles, Score 3 (high) (hairless mice [3]; 10^-8 M): 7 number of mice
COC(=O)C1=C(C)NC(C)=C(C(=O)OC)C1c1ccccc1[N+](=O)[O-] [Nifedipine] | 358.16% | 330.30% | 292.21% | 204.31% | 0 number of mice | 2 number of mice | 3 number of mice | 5 number of mice | 0 number of mice | 2 number of mice | 3 number of mice | 5 number of mice | 0 number of mice | 2 number of mice | 3 number of mice | 5 number of mice | 0 number of mice | 2 number of mice | 2 number of mice | 6 number of mice | Reduction of wrinkles, Score 0 (none) (hairless mice [3]; 10^-5 M): 0 number of mice; Reduction of wrinkles, Score 1 (slight) (hairless mice [3]; 10^-5 M): 2 number of mice; Reduction of wrinkles, Score 2 (moderate) (hairless mice [3]; 10^-5 M): 2 number of mice; Reduction of wrinkles, Score 3 (high) (hairless mice [3]; 10^-5 M): 6 number of mice; Reduction of wrinkles, Score 0 (none) (hairless mice [3]; 10^-8 M): 0 number of mice; Reduction of wrinkles, Score 1 (slight) (hairless mice [3]; 10^-8 M): 2 number of mice; Reduction of wrinkles, Score 2 (moderate) (hairless mice [3]; 10^-8 M): 3 number of mice; Reduction of wrinkles, Score 3 (high) (hairless mice [3]; 10^-8 M): 5 number of mice
